Key:
Conditions in all cases: in vivo
[1] = Cmax in HIV1 infected human at 100 mg, po administered twice daily; type: ADME, organism-based; parameters: dose 100 mg, route oral
[2] = Tmax in HIV1 infected human at 100 mg, po administered twice daily; type: ADME, organism-based
Homo sapiens [3] = test: Tlag in HIV1 infected human at 100 mg, po administered twice daily; type: ADME, organism-based
Homo sapiens [4] = test: AUC in HIV1 infected human at 100 mg, po administered twice daily; type: ADME, organism-based, Plasma
Homo sapiens [5] = test: CL/F in HIV1 infected human at 100 mg, po administered twice daily; type: ADME, organism-based
[6] = Apparent elimination half life in HIV1 infected human at 100 mg, po administered twice daily; type: ADME, organism-based
[7] = Apparent elimination half life in HIV1 infected human at 1000 mg, po administered twice daily; type: ADME, organism-based
Homo sapiens [8] = test: Tlag in HIV1 infected human at 1000 mg, po administered twice daily; type: ADME, organism-based
Homo sapiens [9] = test: AUC in HIV1 infected human at 1000 mg, po administered twice daily; type: ADME, organism-based, Plasma
[10] = Cmax in HIV1 infected human at 1000 mg, po administered twice daily; type: ADME, organism-based; parameters: dose 1000 mg, route oral
[11] = Tmax in HIV1 infected human at 1000 mg, po administered twice daily; type: ADME, organism-based

Row | Cmax [1] [ng/mL] | Tmax [2] [h] | Tlag (Homo sapiens [3]) [h] | AUC (Homo sapiens [4]) [ng·h/mL] | CL/F (Homo sapiens [5]) [L/h] | half-life [6] [h] | half-life [7] [h] | Tlag (Homo sapiens [8]) [h] | AUC (Homo sapiens [9]) [ng·h/mL] | Cmax [10] [ng/mL] | Tmax [11] [h] | Compound
1 | 880 | 4 | 0.25 | 6399.9 | 15.6 | 4.3 |  |  |  |  |  | CC(C)c1nc(CN(C)C(=O)N[C@H](C(=O)N[C@@H](Cc2ccccc2)C[C@H](O)[C@H](Cc2ccccc2)NC(=O)OCc2cncs2)C(C)C)cs1 [RITONAVIR]
2 |  |  |  |  |  |  | 3.7 | 0 | 17546.5 | 2620 | 4 | CC(C)(C)NC(=O)[C@@H]1C[C@@H]2CCCC[C@@H]2CN1C[C@@H](O)[C@H](Cc1ccccc1)NC(=O)[C@H](CC(N)=O)NC(=O)c1ccc2ccccc2n1 [SAQUINAVIR]

Reference: ChEMBL document CHEMBL1143414, “Association of saquinavir plasma concentrations with side effects but not with antiretroviral outcome in patients infected with protease inhibitor-susceptible human immunodeficiency virus type 1” (Antimicrob Agents Chemother, 2007)
